pIC50: −log10 of the molar value. Bounds are passed on as bounds.

The target in this assay is T1, Human complement C1s enzyme (Homo sapiens, UniProt P09871).
T1 sequence (P09871 438-688 limits assumed): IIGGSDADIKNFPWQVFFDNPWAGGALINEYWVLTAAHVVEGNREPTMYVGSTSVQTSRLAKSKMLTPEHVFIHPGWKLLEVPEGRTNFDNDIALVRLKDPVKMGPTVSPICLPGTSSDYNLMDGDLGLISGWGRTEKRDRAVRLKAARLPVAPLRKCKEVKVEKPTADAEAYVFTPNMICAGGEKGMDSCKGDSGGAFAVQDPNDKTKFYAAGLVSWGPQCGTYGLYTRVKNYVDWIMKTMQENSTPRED
T1 sequence (P09871 16-437 partner limits assumed): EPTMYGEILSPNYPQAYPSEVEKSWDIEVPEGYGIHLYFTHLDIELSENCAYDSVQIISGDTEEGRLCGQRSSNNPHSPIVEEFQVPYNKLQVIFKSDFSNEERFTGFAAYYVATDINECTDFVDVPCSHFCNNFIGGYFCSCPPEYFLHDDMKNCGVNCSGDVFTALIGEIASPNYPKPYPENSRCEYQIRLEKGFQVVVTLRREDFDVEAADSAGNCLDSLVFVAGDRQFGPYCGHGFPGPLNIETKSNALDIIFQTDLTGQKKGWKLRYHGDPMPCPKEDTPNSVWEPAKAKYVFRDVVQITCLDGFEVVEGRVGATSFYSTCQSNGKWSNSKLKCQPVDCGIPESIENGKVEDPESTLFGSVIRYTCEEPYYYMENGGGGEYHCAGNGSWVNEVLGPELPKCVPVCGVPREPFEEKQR
As to the kind of experiment: Human C1s enzyme assay. It counts as biochemical. To be noted: human complement C1s enzyme 1.16 nM, substrate Z-L-Lys-SBzl 100 μM, 5 min preincubation; read-out: IC50 (Stars), C1s Inhibiting Activity. The protocol: Other standard complement assays are also available.
Human complement C1s enzyme (purified from human serum, Complement Technology, Inc.) at 1.16 nM final concentration was incubated with test compound at various concentrations for 5 min at room temperature in 50 mM Tris, 1 M NaCl, pH 7.5. A synthetic substrate Z-L-Lys-SBzl and DTNB (Ellman's reagent) were added to final concentrations of 100 μM each. Absorbance at 405 nm (A405) was recorded at 30 second intervals for 30 min using a microplate spectrophotometer. IC50 values were calculated by nonlinear regression of complement C1 s reaction rates as a function of test compound concentration.
ND indicates a compound for which the IC50 value is not determined.
Turning to `C[C@@H](NC(=O)[C@@H]1CC2(CN1C(=O)CNC(=O)c1ccc(-c3ccc(F)cc3F)cc1)OCCO2)c1cc2cnccc2[nH]1` [Compound 68, (S)-N-((R)-1-(1H-pyrrolo[3,2-c]pyridin-2-yl)ethyl)-7-((2′,4′-difluoro-[1,1′-biphenyl]-4-carbonyl)glycyl)-1,4-dioxa-7-azaspiro[4.4]nonane-8-carboxamide], the pIC50 is 6.00 to 7.00.
The result for `O=C(NCC(=O)N1C[C@H](OC(F)F)C[C@H]1C(=O)NCc1ccc2ocnc2c1)c1ccc2c(c1)Oc1ccccc1S2` [Compound 282, (2S,4R)-N-(benzo[d]oxazol-5-ylmethyl)-4-(difluoromethoxy)-1-((phenoxathiine-3-carbonyl)glycyl)pyrrolidine-2-carboxamide] reads less than 6.00.
The result for `O=C(NCC(=O)N1C[C@H](OC(F)F)C[C@H]1C(=O)NCc1ccc2nc[nH]c2c1)c1ccc2c(c1)Oc1ccccc1S2` [Compound 193, (2S,4R)-N-((1H-benzo[d]imidazol-6-yl)methyl)-4-(difluoromethoxy)-1-((phenoxathiine-3-carbonyl)glycyl)pyrrolidine-2-carboxamide] reads less than 6.00; that for `COC[C@@]1(F)C[C@@H](C(=O)N[C@H](C)c2cc3cnccc3[nH]2)N(C(=O)CNC(=O)c2ccc(-c3ccc(F)cc3F)cc2)C1` [Compound 70, (2S,4R)-N-((R)-1-(1H-pyrrolo[3,2-c]pyridin-2-yl)ethyl)-1-((2′,4′-difluoro-[1,1′-biphenyl]-4-carbonyl)glycyl)-4-fluoro-4-(methoxymethyl)pyrrolidine-2-carboxamide], less than 6.00.
To `C[C@@H](NC(=O)[C@@H]1C[C@](F)(Cn2ccnn2)CN1C(=O)CNC(=O)c1ccc2c(c1)Oc1ccccc1S2)c1cc2cnccc2[nH]1` [Compound 216, (2S,4R)-4-((1H-1,2,3-triazol-1-yl)methyl)-N-((R)-1-(1H-pyrrolo[3,2-c]pyridin-2-yl)ethyl)-4-fluoro-1-((phenoxathiine-3-carbonyl)glycyl)pyrrolidine-2-carboxamide] belongs more than 7.00; to `C[C@@]12C[C@@H]1N(C(=O)CN1Cc3ccc(Oc4ccccc4)cc3C1=O)[C@H](C(=O)NCc1cc3cnccc3[nH]1)C2` [Compound 156, (1S,3S,5S)-N-((1H-pyrrolo[3,2-c]pyridin-2-yl)methyl)-5-methyl-2-(2-(1-oxo-6-phenoxyisoindolin-2-yl)acetyl)-2-azabicyclo[3.1.0]hexane-3-carboxamide], 6.00 to 7.00.
Regarding `C[C@@]12C[C@@H]1N(C(=O)CNC(=O)c1ccc3c(c1)Oc1ccccc1S3)[C@H](C(=O)NCc1cc3cc(B(O)O)ccc3[nH]1)C2` [Compound 291, (2-(((1S,3S,5S)-5-methyl-2-((phenoxathiine-3-carbonyl)glycyl)-2-azabicyclo[3.1.0]hexane-3-carboxamido)methyl)-1H-indol-5-yl)boronic acid], the pIC50 was less than 6.00.
To `O=C(NCC(=O)N1C[C@H](OC(F)F)C[C@H]1C(=O)NCc1ccc2[nH]ccc2n1)c1ccc2c(c1)Oc1ccccc1S2` [Compound 230, (2S,4R)-N-((1H-pyrrolo[3,2-b]pyridin-5-yl)methyl)-4-(difluoromethoxy)-1-((phenoxathiine-3-carbonyl)glycyl)pyrrolidine-2-carboxamide] belongs less than 6.00; to `O=C(NCc1cc2cnccc2[nH]1)[C@@H]1CC2(CN1C(=O)CN1Cc3cc(-c4ccc(F)cc4F)ccc3C1=O)OCCO2` [Compound 120, (S)-N-((1H-pyrrolo[3,2-c]pyridin-2-yl)methyl)-7-(2-(5-(2,4-difluorophenyl)-1-oxoisoindolin-2-yl)acetyl)-1,4-dioxa-7-azaspiro[4.4]nonane-8-carboxamide], more than 7.00; to `C[C@@]12C[C@@H]1N(C(=O)CNC(=O)c1ccc3c(c1)Oc1ccccc1S3)[C@H](C(=O)NCc1ccc3c(c1)COB3O)C2` [Compound 279, (1S,3S,5S)-N-((1-hydroxy-1,3-dihydrobenzo[c][1,2]oxaborol-5-yl)methyl)-5-methyl-2-((phenoxathiine-3-carbonyl)glycyl)-2-azabicyclo[3.1.0]hexane-3-carboxamide], less than 6.00.
The result for `O=C(NCC(=O)N1C[C@H](OC(F)F)C[C@H]1C(=O)NCc1ccc2cc[nH]c2n1)c1ccc2c(c1)Oc1ccccc1S2` [Compound 229, (2S,4R)-N-((1H-pyrrolo[2,3-b]pyridin-6-yl)methyl)-4-(difluoromethoxy)-1-((phenoxathiine-3-carbonyl)glycyl)pyrrolidine-2-carboxamide] reads less than 6.00; that for `O=C(NCC(=O)N1CC2(C[C@H]1C(=O)NCc1ccn[nH]1)OCCO2)c1ccc(Oc2ccccc2)cc1` [Compound 12, (S)-N-((1H-pyrazol-5-yl)methyl)-7-((4-phenoxybenzoyl)glycyl)-1,4-dioxa-7-azaspiro[4.4]nonane-8-carboxamide], less than 6.00; that for `O=C(NCC(=O)N1C[C@H](OC(F)F)C[C@H]1C(=O)NCc1ccc2[nH]ncc2n1)c1ccc2c(c1)Oc1ccccc1S2` [Compound 227, (2S,4R)-N-((1H-pyrazolo[4,3-b]pyridin-5-yl)methyl)-4-(difluoromethoxy)-1-((phenoxathiine-3-carbonyl)glycyl)pyrrolidine-2-carboxamide], less than 6.00.
The result for `Cn1c(CNC(=O)[C@@H]2CC3(CN2C(=O)CNC(=O)c2ccc4c(c2)Oc2ccccc2S4)OCCO3)cc2cnccc21` [Compound 46, (S)-N-((1-methyl-1H-pyrrolo[3,2-c]pyridin-2-yl)methyl)-7-((phenoxathiine-3-carbonyl)glycyl)-1,4-dioxa-7-azaspiro[4.4]nonane-8-carboxamide] reads less than 6.00; that for `O=C(NCC(=O)N1CC[C@@H](O)[C@H]1C(=O)NCc1cc2cnccc2[nH]1)c1ccc(Oc2ccccc2)cc1` [Compound 151, (2S,3R)-N-((1H-pyrrolo[3,2-c]pyridin-2-yl)methyl)-3-hydroxy-1-((4-phenoxybenzoyl)glycyl)pyrrolidine-2-carboxamide], 6.00 to 7.00.
For the compound `C[C@@]12C[C@@H]1N(C(=O)CNC(=O)c1cccc(Oc3ccccc3)c1)[C@H](C(=O)NCc1cc3cnccc3[nH]1)C2` [Compound 152, (1S,3S,5S)-N-((1H-pyrrolo[3,2-c]pyridin-2-yl)methyl)-5-methyl-2-((3-phenoxybenzoyl)glycyl)-2-azabicyclo[3.1.0]hexane-3-carboxamide], the pIC50 was more than 7.00.
To `O=C(NCC(=O)N1C[C@H](OC(F)F)C[C@H]1C(=O)NCc1cnc2c(c1)CNC2)c1ccc2c(c1)Oc1ccccc1S2` [Compound 253, (2S,4R)-4-(difluoromethoxy)-N-((6,7-dihydro-5H-pyrrolo[3,4-b]pyridin-3-yl)methyl)-1-((phenoxathiine-3-carbonyl)glycyl)pyrrolidine-2-carboxamide] belongs 6.00 to 7.00; to `O=C(NCC(=O)N1CC2(C[C@H]1C(=O)NCc1cc3ccccc3[nH]1)OCCO2)c1ccc(Oc2ccccc2)cc1` [Compound 11, (S)-N-((1H-indol-2-yl)methyl)-7-((4-phenoxybenzoyl)glycyl)-1,4-dioxa-7-azaspiro[4.4]nonane-8-carboxamide], less than 6.00; to `Cc1ccc(-c2ccc(C(=O)NCC(=O)N3CC4(C[C@H]3C(=O)NCc3cc5cnccc5[nH]3)OCCO4)cc2)s1` [Compound 297, (S)-N-((1H-pyrrolo[3,2-c]pyridin-2-yl)methyl)-7-((4-(5-methylthiophen-2-yl)benzoyl)glycyl)-1,4-dioxa-7-azaspiro[4.4]nonane-8-carboxamide], more than 7.00.
The result for `O=C(NCC(=O)N1C[C@H](OC(F)F)C[C@H]1C(=O)NCc1ccc2ncoc2c1)c1ccc2c(c1)Oc1ccccc1S2` [Compound 221, (2S,4R)-N-(benzo[d]oxazol-6-ylmethyl)-4-(difluoromethoxy)-1-((phenoxathiine-3-carbonyl)glycyl)pyrrolidine-2-carboxamide] reads less than 6.00.
As to `O=C(NCC(=O)N1CC2(C[C@H]1C(=O)NCc1cc3ccccc3[nH]1)OCCO2)c1ccc2c(c1)-c1ccccc1C2(F)F` [Compound 3, (S)-N-((1H-indol-2-yl)methyl)-7-((9,9-difluoro-9H-fluorene-3-carbonyl)glycyl)-1,4-dioxa-7-azaspiro[4.4]nonane-8-carboxamide], the pIC50 was less than 6.00.
Regarding `O=C(NCC(=O)N1CC2(C[C@H]1C(=O)NCc1cc3ccncn3c1)OCCO2)c1ccc2c(c1)Oc1ccccc1S2` [Compound 276, (S)-7-((phenoxathiine-3-carbonyl)glycyl)-N-(pyrrolo[1,2-c]pyrimidin-6-ylmethyl)-1,4-dioxa-7-azaspiro[4.4]nonane-8-carboxamide], the pIC50 was less than 6.00.
